Measurements published in the supplement of paper PMC6045584.
± gives the standard deviation of the averaged measurements.

What was measured:
TEMOZOLOMIDE = compound: Cn1nnc2c(C(N)=O)ncn2c1=O [TEMOZOLOMIDE]; test: surviving fraction relative to DMSO-only wells; higher = less growth inhibition; conditions: exposure time: 5 days
Summary of the method: (§1)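 Inhibitors were tested at 0.5, 1, 5, 10, 50, 100, 500 and 1000 nM, applied continuously for five days beginning 24 hours after log-phase tumour cells were seeded at 250–500 per well in 384-well plates. CellTiter-Glo luminescence served as the viability measure, expressed as surviving fraction against the median of DMSO-only wells. Each line, screened three times, was kept only with replicate Pearson r >0.7 and median Z' >0.3.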

SORAFENIB = compound: CNC(=O)c1cc(Oc2ccc(NC(=O)Nc3ccc(Cl)c(C(F)(F)F)c3)cc2)ccn1 [SORAFENIB]; test: as above; conditions: exposure time: 5 days
Summary of the method: as §1

Test System | surviving fraction (TEMOZOLOMIDE; 0.5 nM) | surviving fraction (TEMOZOLOMIDE; 1 nM) | surviving fraction (TEMOZOLOMIDE; 5 nM) | surviving fraction (TEMOZOLOMIDE; 10 nM) | surviving fraction (TEMOZOLOMIDE; 50 nM) | surviving fraction (TEMOZOLOMIDE; 100 nM) | surviving fraction (TEMOZOLOMIDE; 500 nM) | surviving fraction (TEMOZOLOMIDE; 1000 nM) | surviving fraction (SORAFENIB; 0.5 nM) | surviving fraction (SORAFENIB; 1 nM) | surviving fraction (SORAFENIB; 5 nM) | surviving fraction (SORAFENIB; 10 nM) | surviving fraction (SORAFENIB; 50 nM) | surviving fraction (SORAFENIB; 100 nM) | surviving fraction (SORAFENIB; 500 nM) | surviving fraction (SORAFENIB; 1000 nM)
MFM223 BREAST | 1.46 ± 0.65 | 1.38 ± 0.44 | 1.5 ± 0.54 | 1.49 ± 0.63 | 1.38 ± 0.52 | 1.19 ± 0.07 | 1.38 ± 0.48 | 1.17 ± 0.08 | 1.18 ± 0.021 | 1.16 ± 0.048 | 1.23 ± 0.08 | 1.15 ± 0.047 | 1.23 ± 0.13 | 1.14 ± 0.081 | 1.06 ± 0.13 | 0.742 ± 0.08
MG63 BONE | 0.964 ± 0.016 | 1.01 ± 0.036 | 1.03 ± 0.026 | 1.09 ± 0.035 | 1.01 ± 0.032 | 1.1 ± 0.047 | 0.997 ± 0.031 | 1.02 ± 0.032 | 0.996 ± 0.025 | 1 ± 0.018 | 1.044 ± 0.01 | 1.015 ± 0.0067 | 1.13 ± 0.014 | 1.13 ± 0.031 | 1.1 ± 0.025 | 1.12 ± 0.012
MHM BONE | 0.9827 ± 0.0021 | 0.975 ± 0.007 | 1.01 ± 0.043 | 1.04 ± 0.014 | 0.998 ± 0.042 | 1.03 ± 0.029 | 0.973 ± 0.032 | 0.998 ± 0.0056 | 0.977 ± 0.025 | 1.01 ± 0.024 |  | 1.06 ± 0.051 | 1.071 ± 0.0061 | 1.08 ± 0.024 | 1.1 ± 0.034 | 
NCIH441 LUNG | 1.07 ± 0.065 | 1.14 ± 0.06 | 1.21 ± 0.059 | 1.06 ± 0.066 | 1.04 ± 0.081 | 1.13 ± 0.074 | 1.11 ± 0.086 | 1.19 ± 0.058 | 1.12 ± 0.014 | 1.07 ± 0.028 | 1.12 ± 0.12 | 0.967 ± 0.042 | 0.992 ± 0.023 | 0.99 ± 0.12 | 0.927 ± 0.04 | 0.834 ± 0.016
NOS1 BONE | 0.881 ± 0.071 | 1.01 ± 0.077 | 1.16 ± 0.11 | 1.16 ± 0.049 | 1.25 ± 0.099 | 1.15 ± 0.067 | 1.01 ± 0.076 | 1.06 ± 0.14 | 1.04 ± 0.11 |  | 1.12 ± 0.17 | 0.997 ± 0.058 | 0.995 ± 0.053 | 0.874 ± 0.056 | 0.684 ± 0.0075 | 0.613 ± 0.062
NY BONE | 1.01 ± 0.033 | 1.05 ± 0.018 | 1.01 ± 0.066 | 1.09 ± 0.035 | 1.063 ± 0.004 | 1.09 ± 0.029 | 1.014 ± 0.0032 | 1.02 ± 0.013 | 1.01 ± 0.019 | 0.975 ± 0.033 | 1.04 ± 0.035 | 1.01 ± 0.027 | 1.08 ± 0.036 | 1.07 ± 0.044 | 1.02 ± 0.013 | 1.034 ± 0.0083
OS25HAL BONE | 1.02 ± 0.037 | 1.09 ± 0.031 | 1.06 ± 0.019 | 1.11 ± 0.023 | 1.02 ± 0.033 | 1.09 ± 0.03 | 1.07 ± 0.051 | 1.08 ± 0.041 | 0.99 ± 0.023 | 0.984 ± 0.0092 | 1.03 ± 0.035 |  | 1.06 ± 0.018 | 1.01 ± 0.049 | 0.855 ± 0.077 | 0.645 ± 0.056
OSHN BONE | 1.05 ± 0.014 | 1.08 ± 0.018 | 1.06 ± 0.018 | 1.13 ± 0.035 | 1.07 ± 0.016 | 1.1 ± 0.028 | 1.081 ± 0.0068 | 1.1 ± 0.018 | 1.06 ± 0.024 | 1.047 ± 0.0099 | 1.07 ± 0.018 | 1.05 ± 0.015 | 1.09 ± 0.037 | 1.06 ± 0.014 | 1.08 ± 0.025 | 1.05 ± 0.013
PCI30 HEADNECK | 0.957 ± 0.026 | 0.976 ± 0.067 | 0.988 ± 0.023 | 1.04 ± 0.043 | 1.07 ± 0.047 | 1.05 ± 0.041 | 0.937 ± 0.013 | 0.939 ± 0.03 | 1.04 ± 0.038 |  | 1.02 ± 0.045 | 1.04 ± 0.06 | 1.06 ± 0.098 | 1.11 ± 0.096 | 1.11 ± 0.059 | 1.12 ± 0.013
